Counter-ions that a name gives are not always drawn. Like-named read-outs stand apart in the source and are kept apart here.
Key:
[1] = Dynamic vapour sorption (DVS), water absorption; format: physicochemical
Procedure: Dynamic vapour sorption experiments were performed using a SMS DVS advantage 01 changing the relative humidity from 30-40% RH up to 90-95% RH in steps of 10%RH.

[2] = Attempt to form solvates: precipitation from organic solvents, XRPD of precipitate; format: physicochemical; details: for solvate formation from the organic solvents assessed: EtOH, MeOH, IPA, EtOAc, acetone, ACN, THF, MIBK, toluene and 2.2.2-trifluoroethanol, room temperature, atmospheric pressure; for solvate formation from EtOH: precipitated from EtOH
From the text: A “solvate” indicates a crystalline material with solvent molecules incorporated into the crystal lattice. In the present context, when referring to “solvents” these are limited to non-aqueous solvents, preferably organic solvents. Solvents assessed for solvate formation according to the invention includes the following: ethanol (EtOH), methanol (MeOH), isopropanol (IPA), ethyl acetate (EtOAc), acetone, acetonitrile (ACN), tetrahydrofurane (THF), methyl isobutyl ketone (MIBK), toluene and 2,2,2-trifluoroethanol.
The clear supernatant was diluted and assayed by HPLC. All precipitates were analyzed by XRPD.

[3] = Attempt to form hydrates: precipitation from pure water, XRPD of precipitate; format: physicochemical; details: precipitated from pure water at room temperature and atmospheric pressure
From the text: A “hydrate” indicates a crystalline material with water (H2O) molecules incorporated into the crystal lattice. More particularly, a “non-hydrate forming salt” of nalmefene indicates a salt of which any isolated crystal form contains less than 25 mol % water, such as less than 20 mol % water, such as less than 15 mol % water, such as less than 10 mol % water, such as less than 5 mol % water, such as less than 4, 3, 2 or 1 mol % water, such as substantially no water in the crystal lattice of said salt.

[4] = Thermodynamic aqueous solubility in pure water (shaking, HPLC); details: for pH: aqueous solubility sample in pure water; for pH / Solubility (mg base/mL), aqueous: 23° C. ± 2°; for Solubility (mg base/mL), aqueous: pure water, normalised to nalmefene free base
[5] = Solubility in organic solvents (HPLC); details: 23° C. ± 2°
Procedure: The suspensions were heated with the purpose of obtaining complete dissolution and then cooled to room temperature and left for equilibrium to be attained. The clear supernatant was diluted and assayed by HPLC. All precipitates were analyzed by XRPD.
For comparison, the solvate formation from nalmefene hydrochloride was also investigated.

[6] = precipitated/crystallized from ethanol, Brittain 1996, cited from earlier work
[7] = Brittain 1996, WO 2010/063292, cited from earlier work
μ receptor = μ receptor (Homo sapiens, UniProt P35372); details: in vitro studies; cited from earlier work
κ receptor = κ receptor (Homo sapiens, UniProt P41145); details: in vitro studies; cited from earlier work
δ receptor = δ receptor (Homo sapiens, UniProt P41143); details: in vitro studies; cited from earlier work
δ receptor, sequence (P41143 whole entry): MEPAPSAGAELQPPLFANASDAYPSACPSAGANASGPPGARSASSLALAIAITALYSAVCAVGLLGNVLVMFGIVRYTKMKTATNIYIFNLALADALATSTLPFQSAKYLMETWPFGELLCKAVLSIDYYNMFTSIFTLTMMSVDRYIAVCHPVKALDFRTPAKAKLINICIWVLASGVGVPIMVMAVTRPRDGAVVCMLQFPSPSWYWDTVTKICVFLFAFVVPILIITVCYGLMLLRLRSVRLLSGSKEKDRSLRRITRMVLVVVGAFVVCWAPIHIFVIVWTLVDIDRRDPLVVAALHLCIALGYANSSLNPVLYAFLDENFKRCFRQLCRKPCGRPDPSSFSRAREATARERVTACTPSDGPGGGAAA

κ receptor, sequence (P41145 whole entry): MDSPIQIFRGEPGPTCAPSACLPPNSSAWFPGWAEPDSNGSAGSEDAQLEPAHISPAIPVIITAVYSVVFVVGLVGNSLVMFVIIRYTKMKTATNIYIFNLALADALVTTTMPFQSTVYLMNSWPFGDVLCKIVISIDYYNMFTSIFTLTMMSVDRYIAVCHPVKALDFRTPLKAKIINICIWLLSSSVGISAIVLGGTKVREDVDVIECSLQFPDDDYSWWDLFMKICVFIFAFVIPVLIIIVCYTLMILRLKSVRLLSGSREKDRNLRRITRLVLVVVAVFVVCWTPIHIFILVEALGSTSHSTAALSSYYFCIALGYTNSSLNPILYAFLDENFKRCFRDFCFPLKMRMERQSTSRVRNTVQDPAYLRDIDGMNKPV
μ receptor, sequence (P35372 whole entry): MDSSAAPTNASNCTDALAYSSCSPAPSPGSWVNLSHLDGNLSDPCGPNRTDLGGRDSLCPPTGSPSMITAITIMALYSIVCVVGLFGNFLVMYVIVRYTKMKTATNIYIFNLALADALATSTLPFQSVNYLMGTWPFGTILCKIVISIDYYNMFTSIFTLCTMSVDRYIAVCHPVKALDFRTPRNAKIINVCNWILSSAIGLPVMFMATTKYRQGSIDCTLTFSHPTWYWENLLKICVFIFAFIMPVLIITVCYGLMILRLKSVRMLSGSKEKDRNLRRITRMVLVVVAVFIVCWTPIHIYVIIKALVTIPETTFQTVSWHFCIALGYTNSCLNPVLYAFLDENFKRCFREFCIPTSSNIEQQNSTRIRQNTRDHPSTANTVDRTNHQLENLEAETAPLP

For `C=C1CC[C@@]2(O)[C@H]3Cc4ccc(O)c5c4[C@@]2(CCN3CC2CC2)[C@H]1O5.O=C(O)/C=C/C(=O)O`, the “% abs. at 90% RH (water absorption determined by DVS)” value (from here on “% abs. at 90% RH”) [1] was 0.6%, the “solvate formation from 2,2,2-trifluoroethanol” value ([2]; precipitated from 2,2,2-trifluoroethanol) was “formed solvate” and the hydrate formation [3] was “not to form hydrates”.
For `C=C1CC[C@@]2(O)[C@H]3Cc4ccc(O)c5c4[C@@]2(CCN3CC2CC2)[C@H]1O5.O=C(O)CCCCC(=O)O`, the “% abs. at 90% RH” value [1] was 0.35%, the “solvate formation from the organic solvents assessed” value [2] was “No solvates were formed” and the hydrate formation [3] was “not to form hydrates”.
With `C=C1CC[C@@]2(O)[C@H]3Cc4ccc(O)c5c4[C@@]2(CCN3CC2CC2)[C@H]1O5.O=C(O)CC(=O)O` the “% abs. at 90% RH” value [1] was 0.35%, the “solvate formation from MeOH” value ([2]; precipitated from MeOH) was “formed solvate” and the hydrate formation [3] was “not to form hydrates”.
In the case of `C1=Cc2cccc(OC[C@H]3CNCCO3)c2C1.O=S(=O)(O)c1ccccc1` [Benzene sulfonate], the “% abs. at 90% RH” value [1] is reported as under 0.2%, the pH [4] is reported as 3.12 and the “solvate formation from EtOH” value [2] is reported as “solvate”. The “solvate formation from EtOH” value ([2]; listed as benzene sulfonate salt) was “formed solvate”, the “solvate formation from THF” value ([2]; precipitated from THF) was “formed solvate” and the hydrate formation [3] was “not to form hydrates”.
For `C=C1CC[C@@]2(O)[C@H]3Cc4ccc(O)c5c4[C@@]2(CCN3CC2CC2)[C@H]1O5.O=C(O)/C=C\C(=O)O` [Hydrogen maleate], the “% abs. at 90% RH” value [1] was 0.2%, the “solvate formation from the organic solvents assessed” value [2] was “No solvates were formed” and the hydrate formation [3] was “not to form hydrates”.
With `O=C(O)c1ccccc1O` [Salicylate] the “% abs. at 90% RH” value [1] was 0.4%, the pH [4] was 7.14 and the “Solubility (mg base/mL), aqueous” value [4] was 3.0 mg base/mL. The “Solubility (mg base/mL), aqueous” value ([4]; listed as salicylate salt) was 3 mg base/mL, the “solvate formation from IPA” value ([2]; precipitated from IPA) was “formed solvate” and the “Solubility in 2,2,2-trifluoro-EtOH” value ([5]; 2,2,2-trifluoroethanol, * = precipitated as solvate) was 120 mg base/mL. For the same compound, the “Solubility in ACN” value ([5]; ACN) was 8.2 mg base/mL, the “Solubility in EtOAc” value ([5]; EtOAc) was 2.0 mg base/mL and the “Solubility in EtOH” value ([5]; EtOH, * = precipitated as solvate) was 19 mg base/mL. The “Solubility in IPA” value ([5]; IPA, * = precipitated as solvate) was 0.5* mg base/mL, the “Solubility in MIBK” value ([5]; MIBK) was 2.9 mg base/mL and the “Solubility in MeOH” value ([5]; MeOH, * = precipitated as solvate) was 91 mg base/mL. The “Solubility in THF” value ([5]; THF) was 35 mg base/mL, the Solubility in acetone ([5]; acetone) was 9.7 mg base/mL and the hydrate formation [3] was “not to form hydrates”.
For `C=C1CC[C@@]2(O)[C@H]3Cc4ccc(O)c5c4[C@@]2(CCN3CC2CC2)[C@H]1O5` [nalmefene hydrochloride], the “aqueous solubility of the known hydrochloride salt” value ([4]; unpublished data) is listed as 109 mg base/mL, the “solvate formation from ethanol (literature)” value [6] is listed as “form solvate” and the “solvate formation from ethanol (literature)” value ([6]; listed as Nalmefene hydrochloride) is listed as “ethanol solvate”. The “hydrate formation / thermodynamically stable form (literature)” value ([7]; listed as HCl salt of nalmefene) was “only thermodynamically stable in hydrated or solvated form”, the “hydrate formation / thermodynamically stable form (literature)” value ([7]; listed as nalmefene hydrochloride salt) was “hydrate-forming salt” and the “solvate formation from the organic solvents assessed” value ([2]; listed as hydrochloride salt) was “formed solvate from all the organic solvents”.
In the case of `C=C1CC[C@@]2(O)[C@H]3Cc4ccc(O)c5c4[C@@]2(CCN3CC2CC2)[C@H]1O5` [nalmefene, 17-(cyclopropylmethyl)-4,5-alpha-epoxy-6-methylenemorphinan-3,14-diol], the “activity at the μ receptor” value (μ receptor) is given as “antagonist activity”, the “activity at the κ receptor” value (κ receptor) is given as “partial agonist activity” and the “activity at the δ receptor” value (δ receptor) is given as “antagonist activity”.
For L-lactate, the “% abs. at 90% RH” value [1] was 1.2%, the “solvate formation from the organic solvents assessed” value [2] was “No solvates were formed” and the hydrate formation [3] was “corresponds to a monohydrate”.

— US9938286B2, “Nalmefene salts as medicaments for reducing alcohol consumption or for preventing excessive alcohol consumption” (H. Lundbeck A/S, priority 2013, dated 2018)
